Measured values as given in patent US9155795B2, “CXCR4 receptor compounds” (Anchor Therapeutics, Inc., priority 2010, dated 2015).
Where a SMILES comes first, the peptide text is derived from it. [ ]: non-standard residue; d: D form. The star is where a group is joined. Ala(3-Me-diazirin-3-yl) = CC1(C[C@H](N)C(=O)O)N=N1; Palmitoyl = CCCCCCCCCCCCCCCC(=O)*; Hyp = O=C(O)[C@@H]1C[C@@H](O)CN1; Cit = NC(=O)NCCC[C@H](N)C(=O)O; X1 = CCCCCCCCCCCCOCCC(=O)*; Nle = CCCC[C@H](N)C(=O)O; Pra = C#CC[C@H](N)C(=O)O

Target: T1, CXCR4 (Homo sapiens, UniProt P61073)
T1 construct: CCRF-CEM cells, a human T-cell ALL line that endogenously expresses CXCR4; endogenous in cells; host or cells: CCRF-CEM (human T-cell acute lymphoblastic leukemia line)
T1 sequence (P61073 whole entry): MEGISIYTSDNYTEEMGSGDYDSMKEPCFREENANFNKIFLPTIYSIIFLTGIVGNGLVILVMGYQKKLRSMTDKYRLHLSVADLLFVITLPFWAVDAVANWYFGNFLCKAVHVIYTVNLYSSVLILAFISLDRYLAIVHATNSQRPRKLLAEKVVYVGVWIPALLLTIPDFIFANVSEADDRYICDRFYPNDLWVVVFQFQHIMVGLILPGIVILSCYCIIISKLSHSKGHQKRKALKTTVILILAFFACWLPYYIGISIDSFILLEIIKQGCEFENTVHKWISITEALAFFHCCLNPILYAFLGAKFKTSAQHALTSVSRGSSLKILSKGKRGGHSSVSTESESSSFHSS
Assay: Calcium flux assay, agonist mode, Flexstation (CCRF-CEM cells)
Format: cell-based
Conditions: for Emax: CCRF-CEM, percent of maximum response compared with SDF-1α, read-out: % Intrinsic Activity
Source text: Calcium Flux Assay is one of the most popular cell-based GPCR functional assays. It most often uses calcium sensing fluorescent dyes such as fura2 AM, fluo-4 and Calcium-4 to measure changes in intracellular calcium concentration. It is used mainly to detect GPCR signaling via Gαq subunit. Activation of these Gq-coupled GPCRs leads to activation of phospholipase C, which subsequently leads to increase in inositol phosphate production. IP3 receptors on endoplasmic reticulum sense the change then release calcium into cytoplasm. Intracellular calcium binding to the fluorescent dyes can be detected by instruments that quantify fluorescent intensities, such as FLIPR Tetra, Flexstation (MDS) and FDSS (Hamamatsu). In addition, to assess Gq-couple receptor signaling, a calcium flux assay can also be used to study Gs and Gi couple receptors by co-expressing CNG (cyclic nucleotide gated calcium channel) or chimeric G-proteins (Gqi5, Gsi5 for example). Activation of some Gi-coupled receptors can also be detected by calcium flux assay via Gβγ mediated phospholipase C activation.
The calcium flux assay was used to assess the test compounds' ability to activate the CXCR4 receptor in CCRF-CEM cells (human T lymphoblasts from acute lymphoblastic leukemia). […] After dye loading by incubating with Calcium-4 dye at 37° C. for 1 hour, cell plates were read at 37° C. using the using the Flexstation 3 workstation. Receptor activation was assessed by measuring changes in fluorescent intensity after the addition of the test compounds or the reference agonist SDF-1α on the using the Flexstation 3 workstation. EC50
and percent intrinsic actively were derived from the data collected. Intrinsic activity refers to the efficacy of the test compound and is calculated as the percent of maximum response compared with the response of the reference standard (i.e., natural agonist, SDF-1α).

Row | Emax [%] | EC50 (calcium flux) [nM] | SMILES
1 | 93 | – | CCCCCCCCCCCCCCCC(=O)NCC(=O)NCC(=O)N[C@@H](Cc1ccc(O)cc1)C(=O)N[C@@H](CCC(N)=O)C(=O)N[C@@H](CCCCN)C(=O)N[C@@H](CCCCN)C(=O)N[C@@H](CC(C)C)C(=O)N[C@@H](CCCNC(=N)N)C(=O)N1CCC[C@@H]1C(=O)N[C@@H](Cc1c[nH]c2ccccc12)C(=O)N[C@H](C(=O)N[C@@H](CC(=O)O)C(=O)N[C@@H](CCCCN)C(=O)N[C@@H](Cc1ccc(O)cc1)C(=O)N[C@@H](CCCNC(=N)N)C(=O)N[C@@H](CC(C)C)C(N)=O)[C@@H](C)O [Compound 33] (Palmitoyl-GGYQKKLR[dP]WTDKYRL-NH2; C-terminus assumed)
2 | 62.7 | – | CCCCCCCCCCCCCCCC(=O)N[C@@H](CCSC)C(=O)NCC(=O)N[C@@H](Cc1ccc(O)cc1)C(=O)N[C@@H](CCC(N)=O)C(=O)N[C@@H](CCCCN)C(=O)N[C@@H](CCCCN)C(=O)N[C@@H](CC(C)C)C(=O)N[C@@H](CCCNC(=N)N)C(=O)N[C@@H](CO)C(=O)N[C@@H](CCCC)C(=O)N[C@H](C(=O)N[C@@H](CC(=O)O)C(=O)N[C@@H](CCCCN)C(=O)N[C@@H](Cc1ccc(O)cc1)C(=O)N[C@@H](CCCNC(=N)N)C(=O)N[C@@H](CC(C)C)C(N)=O)[C@@H](C)O [Compound 17] (Palmitoyl-MGYQKKLRS[Nle]TDKYRL-NH2; C-terminus assumed)
3 | 149 | – | CCCCCCCCCCCCCCCC(=O)NCC(=O)NCC(=O)N[C@@H](Cc1ccc(O)cc1)C(=O)N[C@@H](CCC(N)=O)C(=O)N[C@@H](CCCCN)C(=O)N[C@@H](CCCCN)C(=O)N[C@@H](CC(C)C)C(=O)N[C@@H](CCCNC(=N)N)C(=O)N[C@H](C(=O)N[C@@H](C)C(=O)N[C@H](C(=O)N[C@@H](CC(=O)O)C(=O)N[C@@H](CCCCN)C(=O)N[C@@H](Cc1ccc(O)cc1)C(=O)N[C@@H](CCCNC(=N)N)C(=O)N[C@@H](CC(C)C)C(N)=O)[C@@H](C)O)[C@@H](C)O [Compound 41] (Palmitoyl-GGYQKKLRTATDKYRL-NH2; C-terminus assumed)
4 | 101 | – | CCCCCCCCCCCCCCCC(=O)N[C@@H](CCSC)C(=O)NCC(=O)N[C@@H](Cc1ccc(O)cc1)C(=O)N[C@@H](CCC(N)=O)C(=O)N[C@@H](CCCCN)C(=O)N[C@@H](CCCCN)C(=O)N[C@@H](CC(C)C)C(=O)N[C@@H](CCCNC(=N)N)C(=O)N[C@@H](CO)C(=O)NCC(=O)N[C@H](C(=O)N[C@@H](CC(=O)O)C(=O)N[C@@H](CCCCN)C(=O)N[C@@H](Cc1ccc(O)cc1)C(=O)N[C@@H](CCCNC(=N)N)C(=O)N[C@@H](CC(C)C)C(N)=O)[C@@H](C)O [Compound 19] (Palmitoyl-MGYQKKLRSGTDKYRL-NH2; C-terminus assumed)
5 | 88 | – | CCCCCCCCCCCCCCCC(=O)N[C@@H](CCSC)C(=O)NCC(=O)N[C@@H](Cc1ccc(O)cc1)C(=O)N[C@@H](CCC(N)=O)C(=O)N[C@@H](CCCCN)C(=O)N[C@@H](CCCCN)C(=O)N[C@@H](CC(C)C)C(=O)N[C@@H](CCCNC(=N)N)C(=O)N1CCC[C@H]1C(=O)N[C@@H](CO)C(=O)N[C@@H](CCSC)C(=O)N[C@H](C(=O)N[C@@H](CC(=O)O)C(=O)N[C@@H](CCCCN)C(=O)N[C@@H](Cc1ccc(O)cc1)C(=O)N[C@@H](CCCNC(=N)N)C(=O)N[C@@H](CC(C)C)C(N)=O)[C@@H](C)O [Compound 8] (Palmitoyl-MGYQKKLRPSMTDKYRL-NH2; C-terminus assumed)
6 | 3.61 | – | CCCCCCCCCCCCCCCC(=O)N[C@@H](CCSC)C(=O)NCC(=O)N[C@@H](Cc1ccc(O)cc1)C(=O)N[C@@H](CCC(N)=O)C(=O)N[C@@H](CCCCN)C(=O)N[C@@H](CCCCN)C(=O)N[C@@H](CC(C)C)C(=O)N[C@@H](CCCNC(=N)N)C(=O)N[C@@H](CO)C(=O)N[C@@H](CCSC)C(=O)N[C@H](C(=O)N[C@@H](CC(=O)O)C(=O)N[C@@H](CCCCN)C(=O)N[C@@H](Cc1ccc(O)cc1)C(=O)N[C@@H](CCCNC(N)=O)C(=O)N[C@@H](CC(C)C)C(N)=O)[C@@H](C)O [Compound 14] (Palmitoyl-MGYQKKLRSMTDKY[Cit]L-NH2)
7 | 84.2 | – | CCCCCCCCCCCCOCCC(=O)NCC(=O)NCC(=O)N[C@@H](Cc1ccc(O)cc1)C(=O)N[C@@H](CCC(N)=O)C(=O)N[C@@H](CCCCN)C(=O)N[C@@H](CCCCN)C(=O)N[C@@H](CC(C)C)C(=O)N[C@@H](CCCNC(=N)N)C(=O)N[C@@H](CO)C(=O)N[C@@H](C)C(=O)N[C@H](C(=O)N[C@@H](CC(=O)O)C(=O)N[C@@H](CCCCN)C(=O)N[C@@H](Cc1ccc(O)cc1)C(=O)N[C@@H](CCCNC(=N)N)C(=O)N[C@@H](CC(C)C)C(N)=O)[C@@H](C)O [Compound 31] (X1-GGYQKKLRSATDKYRL-NH2; C-terminus assumed)
8 | 85.7 | 71.1 | CCCCCCCCCCCCCCCC(=O)NCC(=O)NCC(=O)N[C@@H](Cc1ccc(O)cc1)C(=O)N[C@@H](CCC(N)=O)C(=O)N[C@@H](CCCCN)C(=O)N[C@@H](CCCCN)C(=O)N[C@@H](CC1(C)N=N1)C(=O)N[C@@H](CCCNC(=N)N)C(=O)N[C@@H](CO)C(=O)N[C@@H](C)C(=O)N[C@H](C(=O)N[C@@H](CC(=O)O)C(=O)N[C@@H](CCCCN)C(=O)N[C@@H](Cc1ccc(O)cc1)C(=O)N[C@@H](CCCNC(=N)N)C(=O)N[C@@H](CC(C)C)C(N)=O)[C@@H](C)O [Compound 37] (Palmitoyl-GGYQKK[Ala(3-Me-diazirin-3-yl)]RSATDKYRL-NH2; C-terminus assumed)
9 | 76.6 | – | C#CC[C@H](NC(=O)CCCCCCCCCCCCCCC)C(=O)NCC(=O)N[C@@H](Cc1ccc(O)cc1)C(=O)N[C@@H](CCC(N)=O)C(=O)N[C@@H](CCCCN)C(=O)N[C@@H](CCCCN)C(=O)N[C@@H](CC(C)C)C(=O)N[C@@H](CCCNC(=N)N)C(=O)N[C@@H](CO)C(=O)N[C@@H](CCSC)C(=O)N[C@H](C(=O)N[C@@H](CC(=O)O)C(=O)N[C@@H](CCCCN)C(=O)N[C@@H](Cc1ccc(O)cc1)C(=O)N[C@@H](CCCNC(=N)N)C(=O)N[C@@H](CC(C)C)C(N)=O)[C@@H](C)O [Compound 24] (Palmitoyl-[Pra]GYQKKLRSMTDKYRL-NH2; C-terminus assumed)
10 | 55.2 | – | CCCCCCCCCCCCCCCC(=O)NCC(=O)NCC(=O)N[C@@H](Cc1ccc(O)cc1)C(=O)N[C@@H](CCC(N)=O)C(=O)N[C@@H](CCCCN)C(=O)N[C@@H](CCCCN)C(=O)N[C@@H](CC(C)C)C(=O)N[C@@H](CCCNC(=N)N)C(=O)N1CCC[C@@H]1C(=O)N1C[C@H](O)C[C@H]1C(=O)N[C@H](C(=O)N[C@@H](CC(=O)O)C(=O)N[C@@H](CCCCN)C(=O)N[C@@H](Cc1ccc(O)cc1)C(=O)N[C@@H](CCCNC(=N)N)C(=O)N[C@@H](CC(C)C)C(N)=O)[C@@H](C)O [Compound 36] (Palmitoyl-GGYQKKLR[dP][Hyp]TDKYRL-NH2; C-terminus assumed)
11 | 61.7 | – | CCCCCCCCCCCCCCCC(=O)N[C@@H](CCSC)C(=O)NCC(=O)N[C@@H](Cc1ccc(O)cc1)C(=O)N[C@@H](CCC(N)=O)C(=O)N[C@@H](CCCCN)C(=O)N[C@@H](CCCCN)C(=O)N[C@@H](CC(C)C)C(=O)N[C@@H](CCCNC(=N)N)C(=O)N[C@@H](CO)C(=O)N[C@@H](CCSC)C(=O)N[C@H](C(=O)N[C@@H](CC(=O)O)C(=O)N[C@@H](CCCCN)C(=O)N[C@@H](Cc1ccc(O)cc1)C(=O)N[C@@H](CCCNC(=N)N)C(=O)N[C@H](C(N)=O)C(C)C)[C@@H](C)O [Compound 11] (Palmitoyl-MGYQKKLRSMTDKYRV-NH2; C-terminus assumed)
12 | 107 | – | CCCCCCCCCCCCCCCC(=O)NCC(=O)NCC(=O)N[C@@H](Cc1ccc(O)cc1)C(=O)N[C@@H](CCC(N)=O)C(=O)N[C@@H](CCCCN)C(=O)N[C@@H](CCCCN)C(=O)N1CCC[C@@H]1C(=O)N[C@@H](CCCNC(=N)N)C(=O)N1CCC[C@@H]1C(=O)N[C@@H](C)C(=O)N[C@H](C(=O)N[C@@H](CC(=O)O)C(=O)N[C@@H](CCCCN)C(=O)N[C@@H](Cc1ccc(O)cc1)C(=O)N[C@@H](CCCNC(=N)N)C(=O)N[C@@H](CC(C)C)C(N)=O)[C@@H](C)O [Compound 28] (Palmitoyl-GGYQKK[dP]R[dP]ATDKYRL-NH2; C-terminus assumed)
13 | 111 | – | CCCCCCCCCCCCCCCC(=O)NCC(=O)NCC(=O)N[C@@H](Cc1ccc(O)cc1)C(=O)N[C@@H](CCC(N)=O)C(=O)N[C@@H](CCCCN)C(=O)N[C@@H](CCCCN)C(=O)N[C@@H](CC(C)C)C(=O)N[C@@H](CCCNC(=N)N)C(=O)N1CCC[C@@H]1C(=O)N[C@@H](C)C(=O)N[C@H](C(=O)N[C@@H](CC(=O)O)C(=O)N[C@@H](CCCCN)C(=O)N[C@@H](Cc1ccc(O)cc1)C(=O)N[C@@H](CCCNC(=N)N)C(=O)N[C@@H](CC(C)C)C(N)=O)[C@@H](C)O [Compound 27] (Palmitoyl-GGYQKKLR[dP]ATDKYRL-NH2; C-terminus assumed)
14 | 91.1 | – | CCCCCCCCCCCCCCCC(=O)NCC(=O)NCC(=O)N[C@@H](Cc1ccc(O)cc1)C(=O)N[C@@H](CCC(N)=O)C(=O)N[C@@H](CCCCN)C(=O)N[C@@H](CCCCN)C(=O)N[C@@H](CC(C)C)C(=O)N[C@@H](CCCNC(=N)N)C(=O)N1CCC[C@@H]1C(=O)N1CCC[C@@H]1C(=O)N[C@@H](Cc1c[nH]cn1)C(=O)N[C@H](C(=O)N[C@@H](CC(=O)O)C(=O)N[C@@H](CCCCN)C(=O)N[C@@H](Cc1ccc(O)cc1)C(=O)N[C@@H](CCCNC(=N)N)C(=O)N[C@@H](CC(C)C)C(N)=O)[C@@H](C)O [Compound 32] (Palmitoyl-GGYQKKLR[dP][dP]HTDKYRL-NH2; C-terminus assumed)
